{"source": "patent US20260199484A1", "about": "“PROTAC DEGRADERS OF MLLT1 AND/OR MLLT3” (DARK BLUE THERAPEUTICS LTD, priority 2024, published 2026)", "key": {"[1]": {"biological_target": "T1, MLLT1 (Homo sapiens, UniProt Q03111)", "T1 sequence (Q03111 1-559)": "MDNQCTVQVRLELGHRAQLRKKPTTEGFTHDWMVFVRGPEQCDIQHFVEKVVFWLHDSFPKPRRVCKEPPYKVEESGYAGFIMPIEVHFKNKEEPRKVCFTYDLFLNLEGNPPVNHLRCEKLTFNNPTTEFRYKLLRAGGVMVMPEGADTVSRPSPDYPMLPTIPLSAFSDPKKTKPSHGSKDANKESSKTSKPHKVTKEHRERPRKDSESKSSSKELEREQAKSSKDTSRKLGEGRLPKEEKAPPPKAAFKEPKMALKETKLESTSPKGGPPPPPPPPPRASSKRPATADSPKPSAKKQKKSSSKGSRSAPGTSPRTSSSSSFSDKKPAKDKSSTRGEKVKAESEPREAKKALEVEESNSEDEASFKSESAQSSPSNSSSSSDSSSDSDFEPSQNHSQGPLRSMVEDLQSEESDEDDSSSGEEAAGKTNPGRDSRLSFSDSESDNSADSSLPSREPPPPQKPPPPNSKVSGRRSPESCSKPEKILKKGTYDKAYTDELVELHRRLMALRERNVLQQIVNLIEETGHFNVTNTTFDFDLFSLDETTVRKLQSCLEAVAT", "test": "MLLT1 degradation assay in MV4-11 cells (JESS, 24 h)", "format": "cell-based", "design": "endogenous in cells; host or cells: MV4-11 (ATCC CRL-9591)", "details": "vs DMSO control", "how_it_was_run": "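MV4-11 cells treated at 1000, 100 and 10 nM (0.1% DMSO) for 24 h at 37° C; lysates (4 ug protein) run on JESS capillary immunoassay with MLLT1 and GAPDH antibodies. Peak areas give % degradation versus DMSO, binned A (≥75%) to D (<25%).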"}, "[2]": {"test_system": "MV4-11 cells", "test": "MV4-11 cellular proliferative assay, Assay Format B (CTG 2.0, 168 h)", "format": "cell-based", "details": "Homo sapiens, Assay format B, 168 h, read-out: IC50 (MV4-11 cellular proliferative assay)", "procedure": "MV4-11 cells at a confluency of ~50-80% was used for cell growth assay. 600 cells/well in a 384-well opaque cell culture plate (6007680; Perkin Elmer) were seeded in 40 μL of complete medium (IMDM+10% FBS+1× Penicillin-Streptomycin). Cells were incubated overnight at 37° C., 5% CO2. 10 mM DMSO stocks were prepared, cells were treated with 10 concentrations of test compounds starting from 1 uM or 100 nM, 3-fold dilution in 10 uL (5× concentration) of complete medium. Final DMSO concentration was 0.3%. Culture plates were centrifuged at 40×g, 30s. Cells were incubated with compounds for 168 h (7 days). After 7 days, 20 uL CTG 2.0 reagent (G9242; Promega) was added per well and luminescence reading was taken in Envision Xcite 2105 multimode plate reader. Data was analyzed in GraphPad Prism 10.0 and data was shown as % viability with respect to DMSO control and dose-response curves were generated using four parameter logistic regression. Assay quality was determined by z-factor calculation using positive and negative controls."}}, "note": "pIC50: −log10 of the molar value."}
{"smiles": "Cc1nn(CC#Cc2cccc3c2CN(C2CCC(=O)NC2=O)C3=O)c2cc(C(=O)Nc3cc4[nH]c([C@H]5CCCN5C)cc4cn3)ccc12", "note": "(stereo partly drawn) [Example 72, 1-(3-(2-(2,6-dioxopiperidin-3-yl)-1-oxoisoindolin-4-yl)prop-2-yn-1-yl)-3-methyl-N-(2-((R)-1-methylpyrrolidin-2-yl)-1H-pyrrolo[3,2-c]pyridin-6-yl)-1H-indazole-6-carboxamide]", "values": [{"measurement": "MLLT1% Degradation @ 0.01 μM", "setting": "[1]", "result": "A (Category A: A≥75% degradation)"}, {"measurement": "MLLT1% Degradation @ 0.1 μM", "setting": "[1]", "result": "A (Category A: A≥75% degradation)"}, {"measurement": "MLLT1% Degradation @ 1 μM", "setting": "[1]", "result": "B (Category B: 50%≤B<75% degradation)"}, {"measurement": "pIC50", "setting": "[2]", "result": "> 7.00"}]}
{"smiles": "Cc1nn(CC2CCN(c3cccc4c3CN(C3CCC(=O)NC3=O)C4=O)CC2)c2cc(C(=O)Nc3cc4[nH]c([C@H]5CCCN5C)cc4cn3)ccc12", "note": "(stereo partly drawn) [Example 106, 1-((1-(2-(2,6-dioxopiperidin-3-yl)-1-oxoisoindolin-4-yl)piperidin-4-yl)methyl)-3-methyl-N-(2-((R)-1-methylpyrrolidin-2-yl)-1H-pyrrolo[3,2-c]pyridin-6-yl)-1H-indazole-6-carboxamide]", "values": [{"measurement": "MLLT1% Degradation @ 0.01 μM", "setting": "[1]", "result": "A (Category A: A≥75% degradation)"}, {"measurement": "MLLT1% Degradation @ 0.1 μM", "setting": "[1]", "result": "A (Category A: A≥75% degradation)"}, {"measurement": "MLLT1% Degradation @ 1 μM", "setting": "[1]", "result": "A (Category A: A≥75% degradation)"}, {"measurement": "pIC50", "setting": "[2]", "result": "> 7.00"}]}
{"smiles": "Cc1nn(C2CCC(CCCC#Cc3cccc4c3CN(C3CCC(=O)NC3=O)C4=O)CC2)c2cc(C(=O)Nc3cc4[nH]c([C@H]5CCCN5C)cc4cn3)ccc12", "note": "(stereo partly drawn) [Example 74, 1-(4-(5-(2-(2,6-dioxopiperidin-3-yl)-1-oxoisoindolin-4-yl)pent-4-yn-1-yl)cyclohexyl)-3-methyl-N-(2-((R)-1-methylpyrrolidin-2-yl)-1H-pyrrolo[3,2-c]pyridin-6-yl)-1H-indazole-6-carboxamide]", "values": [{"measurement": "MLLT1% Degradation @ 0.01 μM", "setting": "[1]", "result": "B (Category B: 50%≤B<75% degradation)"}, {"measurement": "MLLT1% Degradation @ 0.1 μM", "setting": "[1]", "result": "B (Category B: 50%≤B<75% degradation)"}, {"measurement": "MLLT1% Degradation @ 1 μM", "setting": "[1]", "result": "A (Category A: A≥75% degradation)"}, {"measurement": "pIC50", "setting": "[2]", "result": "> 7.00"}]}
{"smiles": "Cc1nn(CCCCCCCC#Cc2cccc3c2CN(C2CCC(=O)NC2=O)C3=O)c2cc(C(=O)Nc3cc4[nH]c([C@H]5CCCN5C)c(C#N)c4cn3)ccc12", "note": "(stereo partly drawn) [Example 66, N-(3-cyano-2-((R)-1-methylpyrrolidin-2-yl)-1H-pyrrolo[3,2-c]pyridin-6-yl)-1-(9-(2-(2,6-dioxopiperidin-3-yl)-1-oxoisoindolin-4-yl)non-8-yn-1-yl)-3-methyl-1H-indazole-6-carboxamide]", "values": [{"measurement": "MLLT1% Degradation @ 0.01 μM", "setting": "[1]", "result": "A (Category A: A≥75% degradation)"}, {"measurement": "MLLT1% Degradation @ 0.1 μM", "setting": "[1]", "result": "A (Category A: A≥75% degradation)"}, {"measurement": "MLLT1% Degradation @ 1 μM", "setting": "[1]", "result": "A (Category A: A≥75% degradation)"}, {"measurement": "pIC50", "setting": "[2]", "result": "> 7.00"}]}
{"smiles": "Cc1nn(CCCCCC2CCN(c3ccc4c(c3)C(=O)N(C3CCC(=O)NC3=O)C4=O)CC2)c2cc(C(=O)Nc3cc4[nH]c([C@H]5CCCN5C)cc4cn3)ccc12", "note": "(stereo partly drawn) [Example 109, 1-(5-(1-(2-(2,6-dioxopiperidin-3-yl)-1,3-dioxoisoindolin-5-yl)piperidin-4-yl)pentyl)-3-methyl-N-(2-((R)-1-methylpyrrolidin-2-yl)-1H-pyrrolo[3,2-c]pyridin-6-yl)-1H-indazole-6-carboxamide]", "values": [{"measurement": "MLLT1% Degradation @ 0.01 μM", "setting": "[1]", "result": "A (Category A: A≥75% degradation)"}, {"measurement": "MLLT1% Degradation @ 0.1 μM", "setting": "[1]", "result": "A (Category A: A≥75% degradation)"}, {"measurement": "MLLT1% Degradation @ 1 μM", "setting": "[1]", "result": "A (Category A: A≥75% degradation)"}, {"measurement": "pIC50", "setting": "[2]", "result": "> 7.00"}]}
{"smiles": "Cc1nn(C2CCN(CC#Cc3cccc4c3CN(C3CCC(=O)NC3=O)C4=O)CC2)c2cc(C(=O)Nc3cc4[nH]c([C@H]5CCCN5C)cc4cn3)ccc12", "note": "(stereo partly drawn) [Example 68, 1-(1-(3-(2-(2,6-dioxopiperidin-3-yl)-1-oxoisoindolin-4-yl)prop-2-yn-1-yl)piperidin-4-yl)-3-methyl-N-(2-((R)-1-methylpyrrolidin-2-yl)-1H-pyrrolo[3,2-c]pyridin-6-yl)-1H-indazole-6-carboxamide]", "values": [{"measurement": "MLLT1% Degradation @ 0.01 μM", "setting": "[1]", "result": "A (Category A: A≥75% degradation)"}, {"measurement": "MLLT1% Degradation @ 0.1 μM", "setting": "[1]", "result": "A (Category A: A≥75% degradation)"}, {"measurement": "MLLT1% Degradation @ 1 μM", "setting": "[1]", "result": "B (Category B: 50%≤B<75% degradation)"}, {"measurement": "pIC50", "setting": "[2]", "result": "> 7.00"}]}
{"smiles": "Cc1nn(CCCCCCCCC#Cc2cccc3c2CN(C2CCC(=O)NC2=O)C3=O)c2cc(C(=O)Nc3cc4[nH]c([C@H]5CCCN5C)cc4cn3)ccc12", "note": "(stereo partly drawn) [Example 54, 1-(10-(2-(2,6-dioxopiperidin-3-yl)-1-oxoisoindolin-4-yl)dec-9-yn-1-yl)-3-methyl-N-(2-((R)-1-methylpyrrolidin-2-yl)-1H-pyrrolo[3,2-c]pyridin-6-yl)-1H-indazole-6-carboxamide]", "values": [{"measurement": "MLLT1% Degradation @ 0.01 μM", "setting": "[1]", "result": "A (Category A: A≥75% degradation)"}, {"measurement": "MLLT1% Degradation @ 0.1 μM", "setting": "[1]", "result": "A (Category A: A≥75% degradation)"}, {"measurement": "MLLT1% Degradation @ 1 μM", "setting": "[1]", "result": "A (Category A: A≥75% degradation)"}, {"measurement": "pIC50", "setting": "[2]", "result": "> 7.00"}]}
{"smiles": "Cc1nn(CCCCCCCC#Cc2cccc3c2CN([C@H]2CCC(=O)NC2=O)C3=O)c2cc(C(=O)Nc3cc4[nH]c([C@H]5CCCN5C)cc4cn3)ccc12", "note": "(relative stereo) [Example 98, 1-(9-(2-((rel-S)-2,6-dioxopiperidin-3-yl)-1-oxoisoindolin-4-yl)non-8-yn-1-yl)-3-methyl-N-(2-((R)-1-methylpyrrolidin-2-yl)-1H-pyrrolo[3,2-c]pyridin-6-yl)-1H-indazole-6-carboxamide]", "values": [{"measurement": "MLLT1% Degradation @ 0.01 μM", "setting": "[1]", "result": "A (Category A: A≥75% degradation)"}, {"measurement": "MLLT1% Degradation @ 0.1 μM", "setting": "[1]", "result": "A (Category A: A≥75% degradation)"}, {"measurement": "MLLT1% Degradation @ 1 μM", "setting": "[1]", "result": "A (Category A: A≥75% degradation)"}, {"measurement": "pIC50", "setting": "[2]", "result": "> 7.00"}]}
{"smiles": "CN1CCC[C@@H]1c1cc2cnc(NC(=O)c3ccc4c(C5CC5)nn(CCCCCCCC#Cc5cccc6c5CN(C5CCC(=O)NC5=O)C6=O)c4c3)cc2[nH]1", "note": "(stereo partly drawn) [Example 59, 3-cyclopropyl-1-(9-(2-(2,6-dioxopiperidin-3-yl)-1-oxoisoindolin-4-yl)non-8-yn-1-yl)-N-(2-((R)-1-methylpyrrolidin-2-yl)-1H-pyrrolo [3,2-c]pyridin-6-yl)-1H-indazole-6-carboxamide]", "values": [{"measurement": "MLLT1% Degradation @ 0.01 μM", "setting": "[1]", "result": "A (Category A: A≥75% degradation)"}, {"measurement": "MLLT1% Degradation @ 0.1 μM", "setting": "[1]", "result": "A (Category A: A≥75% degradation)"}, {"measurement": "MLLT1% Degradation @ 1 μM", "setting": "[1]", "result": "A (Category A: A≥75% degradation)"}, {"measurement": "pIC50", "setting": "[2]", "result": "> 7.00"}]}
{"smiles": "Cc1nn(CCCCCCCC#Cc2cccc3c2CN([C@H]2CCC(=O)NC2=O)C3=O)c2cc(C(=O)Nc3cc4[nH]c([C@H]5CCCN5C)cc4cn3)c(F)cc12", "note": "(relative stereo) [Example 102, 1-(9-(2-((rel-S)-2,6-dioxopiperidin-3-yl)-1-oxoisoindolin-4-yl)non-8-yn-1-yl)-5-fluoro-3-methyl-N-(2-((R)-1-methylpyrrolidin-2-yl)-1H-pyrrolo[3,2-c]pyridin-6-yl)-1H-indazole-6-carboxamide]", "values": [{"measurement": "MLLT1% Degradation @ 0.01 μM", "setting": "[1]", "result": "A (Category A: A≥75% degradation)"}, {"measurement": "MLLT1% Degradation @ 0.1 μM", "setting": "[1]", "result": "A (Category A: A≥75% degradation)"}, {"measurement": "MLLT1% Degradation @ 1 μM", "setting": "[1]", "result": "A (Category A: A≥75% degradation)"}, {"measurement": "pIC50", "setting": "[2]", "result": "> 7.00"}]}
